Assay results from patent US9862730B2, “Imidazothiadiazole derivatives as protease activated receptor 4 (PAR4) inhibitors for treating platelet aggregation” (BRISTOL-MYERS SQUIBB COMPANY, priority 2012, dated 2018).

Test system: electrolytic injury-induced carotid artery thrombosis
Test: Cynomolgus monkey electrolytic injury-induced carotid artery thrombosis model
Assay type: in vivo
Settings: oral, dose response
Excerpt: The efficacy of the PAR4 antagonists of the present invention in preventing thrombosis can also be measured in a variety of in vivo assays. Exemplary mammals that can provide models of thrombosis and hemostasis to test the effectiveness of the PAR4 antagonists of the present invention as antithrombotic agents include, but are not limited to, guinea pigs and primates. Relevant efficacy models include, but are not limited to, electrolytic injury-induced carotid artery thrombosis, FeCl3-induced carotid artery thrombosis and arteriovenous-shunt thrombosis. […]
On the day of the study, compounds or vehicles were administered orally at 1 to 2 hours before the experiment. […] Blood pressure and heart rate were monitored to maintain normal vital signs.
Carotid blood flow was measured with an appropriately sized TRANSONIC® flow probe and a TRANSONIC® perivascular flowmeter (TS420 Model, Transonic Systems Inc., Ithaca, N.Y.). It was continuously recorded over a 90-min period to monitor thrombosis-induced occlusion. Integrated carotid blood flow was measured by the area under the flow-time curve. It was expressed as percent of total control carotid blood flow, which would result if control blood flow had been maintained continuously for 90 min. […]

Question: How did the “antithrombotic efficacy / inhibition of thrombus formation (FIG. 5)” value turn out when COc1cc(OCc2cccc(OCc3ccccc3)c2)c2cc(-c3cn4nc(OC)sc4n3)oc2c1 [Example 205, 6-(4-((3-(Benzyloxy)benzyl)oxy)-6-methoxybenzofuran-2-yl)-2-methoxyimidazo[2,1-b][1,3,4]thiadiazole] was run?
Answer: demonstrating the in vivo antithrombotic efficacy
